Assay results as given in ChEMBL document CHEMBL6134868, “Novel Aryl Sulfonium Modification on Vancomycin to Tackle MRSA and VRE In Vitro and In Vivo through Dual Enhanced Cell-Wall and Membrane Inhibition” (J Med Chem, 2025).
≈ marks a conversion by molar mass, not a printed value. Positions of bridges follow the written chain, without caps; N, C: chain ends. Non-standard residues stand in square brackets, D forms with d. Residues, ends and D or L forms follow the SMILES beside them. *: point of attachment. X1 = CC[C@H](C)CCCCC(=O)*; Dab = NCC[C@H](N)C(=O)O

Experiments:
Assay type in all cases: functional
Conditions in all cases: time 16-24 hrs
[1] = tested on: Klebsiella pneumoniae; test: Antibacterial activity against Klebsiella pneumoniae KP-1 incubated for 16 to 24 hrs by broth microdilution assay
[2] = tested on: Enterococcus faecium; test: Antibacterial activity against vancomycin-resistant Enterococcus faecium Efm-HS-vb01 harboring VanB phenotype incubated for 16 to 24 hrs by broth microdilution assay
[3] = tested on: Acinetobacter baumannii; test: Antibacterial activity against Acinetobacter baumannii ATCC19606 incubated for 16 to 24 hrs by broth microdilution assay
[4] = tested on: Enterococcus faecium; test: Antibacterial activity against vancomycin-resistant Enterococcus faecium Efm-HS-vb02 harboring VanB phenotype incubated for 16 to 24 hrs by broth microdilution assay
[5] = tested on: Acinetobacter baumannii; test: Antibacterial activity against carbapenem-resistant Acinetobacter baumannii CRAB-1 clinical isolate incubated for 16 to 24 hrs by broth microdilution assay
[6] = tested on: Enterococcus faecium; test: Antibacterial activity against vancomycin-resistant Enterococcus faecium Efm-HS-08257 harboring VanM phenotype incubated for 16 to 24 hrs by broth microdilution assay
[7] = tested on: Pseudomonas aeruginosa; test: Antibacterial activity against Pseudomonas aeruginosa PAO1 incubated for 16 to 24 hrs by broth microdilution assay
[8] = tested on: Staphylococcus aureus; test: Antibacterial activity against methicillin-resistant Staphylococcus aureus USA300 LAC incubated for 16 to 24 hrs by broth microdilution assay
[9] = tested on: Enterococcus faecium; test: Antibacterial activity against vancomycin-resistant Enterococcus faecium Efm-HS-0649 harboring VanA phenotype incubated for 16 to 24 hrs by broth microdilution assay
[10] = tested on: Staphylococcus aureus; test: Antibacterial activity against vancomycin-intermediate Staphylococcus aureus Mu50 incubated for 16 to 24 hrs by broth microdilution assay
[11] = tested on: Escherichia coli; test: Antibacterial activity against Escherichia coli AB1157 incubated for 16 to 24 hrs by broth microdilution assay

Row | Structure (SMILES) | MIC [1] [µg/mL] | MIC [2] [µg/mL] | MIC [3] [µg/mL] | MIC [4] [µg/mL] | MIC [5] [µg/mL] | MIC [6] [µg/mL] | MIC [7] [µg/mL] | MIC [8] [µg/mL] | MIC [9] [µg/mL] | MIC [10] [µg/mL] | MIC [11] [µg/mL]
1 | CN[C@H](CC(C)C)C(=O)N[C@H]1C(=O)N[C@@H](CC(N)=O)C(=O)N[C@H]2C(=O)N[C@H]3C(=O)N[C@H](C(=O)N[C@H](C(=O)NCCC[S+](C)CC(O)COc4ccccc4Cl)c4cc(O)cc(O)c4-c4cc3ccc4O)[C@H](O)c3ccc(c(Cl)c3)Oc3cc2cc(c3O[C@@H]2O[C@H](CO)[C@@H](O)[C@H](O)[C@H]2O[C@H]2C[C@](C)(N)[C@H](O)[C@H](C)O2)Oc2ccc(cc2Cl)[C@H]1O.O=C([O-])C(F)(F)F (some centres not stated) | > 128 | 8 | 64 | 2 | > 128 | 8 | > 128 | 0.25 | 16 | 1 | 16
2 | CN[C@H](CC(C)C)C(=O)N[C@H]1C(=O)N[C@@H](CC(N)=O)C(=O)N[C@H]2C(=O)N[C@H]3C(=O)N[C@H](C(=O)N[C@H](C(=O)NCCC[S+](C)CC(O)COc4ccc(C(C)(C)C)cc4)c4cc(O)cc(O)c4-c4cc3ccc4O)[C@H](O)c3ccc(c(Cl)c3)Oc3cc2cc(c3O[C@@H]2O[C@H](CO)[C@@H](O)[C@H](O)[C@H]2O[C@H]2C[C@](C)(N)[C@H](O)[C@H](C)O2)Oc2ccc(cc2Cl)[C@H]1O.O=C([O-])C(F)(F)F (some centres not stated) | > 128 | 16 | 32 | 4 | 64 | 8 | > 128 | ≤ 0.063 | 32 | 1 | 32
3 | CN[C@H](CC(C)C)C(=O)N[C@H]1C(=O)N[C@@H](CC(N)=O)C(=O)N[C@H]2C(=O)N[C@H]3C(=O)N[C@H](C(=O)N[C@H](C(=O)O)c4cc(O)c(CNCCC[S+](C)CC(O)COc5ccccc5)c(O)c4-c4cc3ccc4O)[C@H](O)c3ccc(c(Cl)c3)Oc3cc2cc(c3O[C@@H]2O[C@H](CO)[C@@H](O)[C@H](O)[C@H]2O[C@H]2C[C@](C)(N)[C@H](O)[C@H](C)O2)Oc2ccc(cc2Cl)[C@H]1O.O=C([O-])C(F)(F)F (some centres not stated) | > 128 | 2 | 128 | 4 | 128 | 64 | > 128 | 0.5 | 128 | 4 | 32
4 | CN[C@H](CC(C)C)C(=O)N[C@H]1C(=O)N[C@@H](CC(N)=O)C(=O)N[C@H]2C(=O)N[C@H]3C(=O)N[C@H](C(=O)N[C@H](C(=O)NCCC[S+](C)CC(O)COc4ccccc4)c4cc(O)cc(O)c4-c4cc3ccc4O)[C@H](O)c3ccc(c(Cl)c3)Oc3cc2cc(c3O[C@@H]2O[C@H](CO)[C@@H](O)[C@H](O)[C@H]2O[C@H]2C[C@](C)(N)[C@H](O)[C@H](C)O2)Oc2ccc(cc2Cl)[C@H]1O.O=C([O-])C(F)(F)F (some centres not stated) | > 128 | 16 | 64 | 4 | > 128 | 16 | > 128 | 0.25 | 32 | 2 | 16
5 | CN[C@H](CC(C)C)C(=O)N[C@H]1C(=O)N[C@@H](CC(N)=O)C(=O)N[C@H]2C(=O)N[C@H]3C(=O)N[C@H](C(=O)N[C@H](C(=O)NCCC[S+](C)CC(O)COc4ccc(OC)cc4)c4cc(O)cc(O)c4-c4cc3ccc4O)[C@H](O)c3ccc(c(Cl)c3)Oc3cc2cc(c3O[C@@H]2O[C@H](CO)[C@@H](O)[C@H](O)[C@H]2O[C@H]2C[C@](C)(N)[C@H](O)[C@H](C)O2)Oc2ccc(cc2Cl)[C@H]1O.O=C([O-])C(F)(F)F (some centres not stated) | > 128 | 16 | 64 | 4 | 64 | 16 | > 128 | 0.25 | 32 | 2 | 16
6 | CN[C@H](CC(C)C)C(=O)N[C@H]1C(=O)N[C@@H](CC(N)=O)C(=O)N[C@H]2C(=O)N[C@H]3C(=O)N[C@H](C(=O)N[C@H](C(=O)O)c4cc(O)c(CNCCCSCC(O)COc5ccc(-c6ccc(C(F)(F)F)cc6)cc5)c(O)c4-c4cc3ccc4O)[C@H](O)c3ccc(c(Cl)c3)Oc3cc2cc(c3O[C@@H]2O[C@H](CO)[C@@H](O)[C@H](O)[C@H]2O[C@H]2C[C@](C)(N)[C@H](O)[C@H](C)O2)Oc2ccc(cc2Cl)[C@H]1O (some centres not stated) | > 128 | 4 (≈ 2.17 µM) | 32 (≈ 17.3 µM) | 2 (≈ 1.08 µM) | 128 (≈ 69.3 µM) | 2 (≈ 1.08 µM) | > 128 | 0.125 (≈ 0.0677 µM) | 4 (≈ 2.17 µM) | 1 (≈ 0.541 µM) | > 128
7 | CCCCCCCCCC(=O)N[C@@H](Cc1c[nH]c2ccccc12)C(=O)N[C@@H](CC(N)=O)C(=O)N[C@@H](CC(=O)O)C(=O)N[C@@H]1C(=O)NCC(=O)N[C@@H](CCCN)C(=O)N[C@@H](CC(=O)O)C(=O)N[C@H](C)C(=O)N[C@@H](CC(=O)O)C(=O)NCC(=O)N[C@H](CO)C(=O)N[C@@H]([C@@H](C)CC(=O)O)C(=O)N[C@@H](CC(=O)c2ccccc2N)C(=O)O[C@@H]1C | – | 8 (≈ 4.94 µM) | – | 4 (≈ 2.47 µM) | – | 8 (≈ 4.94 µM) | – | 1 (≈ 0.617 µM) | 8 (≈ 4.94 µM) | 4 (≈ 2.47 µM) | –
8 | CN[C@H](CC(C)C)C(=O)N[C@H]1C(=O)N[C@@H](CC(N)=O)C(=O)N[C@H]2C(=O)N[C@H]3C(=O)N[C@H](C(=O)N[C@H](C(=O)NCCC[S+](C)C[C@@H](O)COc4ccccc4)c4cc(O)cc(O)c4-c4cc3ccc4O)[C@H](O)c3ccc(c(Cl)c3)Oc3cc2cc(c3O[C@@H]2O[C@H](CO)[C@@H](O)[C@H](O)[C@H]2O[C@H]2C[C@](C)(N)[C@H](O)[C@H](C)O2)Oc2ccc(cc2Cl)[C@H]1O.O=C([O-])C(F)(F)F (some centres not stated) | > 128 | 16 | 64 | 2 | > 128 | 16 | > 128 | 0.25 | 32 | 2 | 16
9 | CN[C@H](CC(C)C)C(=O)N[C@H]1C(=O)N[C@@H](CC(N)=O)C(=O)N[C@H]2C(=O)N[C@H]3C(=O)N[C@H](C(=O)N[C@H](C(=O)NCCC[S+](C)CC(O)COc4cccc(Cl)c4)c4cc(O)cc(O)c4-c4cc3ccc4O)[C@H](O)c3ccc(c(Cl)c3)Oc3cc2cc(c3O[C@@H]2O[C@H](CO)[C@@H](O)[C@H](O)[C@H]2O[C@H]2C[C@](C)(N)[C@H](O)[C@H](C)O2)Oc2ccc(cc2Cl)[C@H]1O.O=C([O-])C(F)(F)F (some centres not stated) | > 128 | 8 | 32 | 2 | 64 | 4 | 128 | 0.125 | 16 | 1 | 16
10 | CN[C@H](CC(C)C)C(=O)N[C@H]1C(=O)N[C@@H](CC(N)=O)C(=O)N[C@H]2C(=O)N[C@H]3C(=O)N[C@H](C(=O)N[C@H](C(=O)O)c4cc(O)c(CNCCC[S+](C)CC(O)COc5ccc(-c6ccccc6)cc5)c(O)c4-c4cc3ccc4O)[C@H](O)c3ccc(c(Cl)c3)Oc3cc2cc(c3O[C@@H]2O[C@H](CO)[C@@H](O)[C@H](O)[C@H]2O[C@H]2C[C@](C)(N)[C@H](O)[C@H](C)O2)Oc2ccc(cc2Cl)[C@H]1O.O=C([O-])C(F)(F)F (some centres not stated) | > 128 | ≤ 0.063 | 16 | ≤ 0.063 | 32 | 4 | > 128 | ≤ 0.063 | 4 | ≤ 0.063 | 16
11 | C[C@@H](O)[C@H]1C(=O)N2C(C(=O)O)=C(S[C@@H]3CN[C@H](C(=O)N(C)C)C3)[C@H](C)[C@H]12 [MEROPENEM] | – | – | 2 (≈ 5.22 µM) | – | > 128 | – | – | – | – | – | –
12 | CC(=O)NC[C@H]1CN(c2ccc(N3CCOCC3)c(F)c2)C(=O)O1 [LINEZOLID] | > 128 | 2 (≈ 5.93 µM) | 128 (≈ 379 µM) | 2 (≈ 5.93 µM) | 128 (≈ 379 µM) | 2 (≈ 5.93 µM) | 128 (≈ 379 µM) | 1 (≈ 2.96 µM) | 1 (≈ 2.96 µM) | – | 128 (≈ 379 µM)
13 | CC(C)CCCCC(=O)N[C@@H](CCN)C(=O)N[C@H](C(=O)N[C@@H](CCN)C(=O)N[C@H]1CCNC(=O)[C@H]([C@@H](C)O)NC(=O)[C@H](CCN)NC(=O)[C@H](CCN)NC(=O)[C@H](CC(C)C)NC(=O)[C@@H](Cc2ccccc2)NC(=O)[C@H](CCN)NC1=O)[C@@H](C)O.CC[C@H](C)CCCCC(=O)N[C@@H](CCN)C(=O)N[C@H](C(=O)N[C@@H](CCN)C(=O)N[C@H]1CCNC(=O)[C@H]([C@@H](C)O)NC(=O)[C@H](CCN)NC(=O)[C@H](CCN)NC(=O)[C@H](CC(C)C)NC(=O)[C@@H](Cc2ccccc2)NC(=O)[C@H](CCN)NC1=O)[C@@H](C)O (X1-[Dab]T[Dab][Dab][Dab][dF]L[Dab][Dab]T; lactam 4-C) | ≤ 0.063 | – | 0.125 | – | 0.125 | – | 0.5 | – | – | – | 0.125
